From paper PMC5147771, “High-Resolution Genetics Identifies the Lipid Transfer Protein Sec14p as Target for Antifungal Ergolines” (PLoS Genetics, 2016)
Entries after “also recorded” stand apart in the source; their conditions may differ. Like-named read-outs stand apart in the source and are kept apart here.

Assays:
C. neoformans ATCC 90113 = test: C. neoformans growth inhibition (CLSI M27-A3 broth microdilution); format: cell-based; conditions: for MIC: Cryptococcus neoformans, ATCC90113, 72 h
Text: (§1) Sec14p is reported to be essential for virulence as well as for growth in C. neoformans. The S. cerevisiae and C. neoformans proteins show 53% similarity by pair-wise alignment with higher conservation of the residues in the lipid-binding pocket (S2 Fig). Furthermore, three of the four sites identified to be critical for NGx04 sensitivity, are conserved (S2 Fig). In combination with the current high unmet medical need related to Cryptococcus infections we prioritized testing of NGx04 and 18 related ergoline scaffold analogs against this pathogen. Two clinical isolates of C. neoformans (ATCC 36556 and ATCC 90113) were plated in triplicates on increasing drug concentrations and MIC-2 (50% inhibition) and MIC-0 (no visible fungal growth) concentrations were scored after 72 hrs. (Fig 5).
(§2) C. neoformans strains ATCC 36556, a lung isolate, and ATCC 90113, a cerebrospinal fluid isolate, were purchased from ATCC, Manassas, VA (USA). BPY22 was obtained from.
(§3) Antifungal susceptibility testing was conducted according to the Clinical and Laboratory Standards Institute (CLSI) guidelines for broth microdilution assay M27-A3. Testing was performed in RPMI-1640 (HyClone) with 2.05 mM glutamine, phenol red, without bicarbonate and buffered with 0.165 mol/l 3-(N-morpholino) propanesulfonic acid (MOPS). The medium was adjusted to pH 7.0 and sterilized with a 0.2 μm filter. Two endpoints were recorded: MIC-0 (complete inhibition with no visible fungal growth) and MIC-2 (prominent inhibition corresponding to >50% growth reduction).

C. neoformans ATCC 36556 = test: as above; format: cell-based; conditions: for MIC: Cryptococcus neoformans, ATCC36556, 72 h; for C. neoformans growth inhibition (in words): clinical isolates ATCC 36556 and ATCC 90113, tested dose range
Text: as §1, §2, §3

[1] = 50% inhibition, 72 h, triplicate values printed singly
[2] = 50% inhibition, 72 h, triplicate values printed singly, read-out: ATCC90113 MIC-2
[3] = no visible fungal growth, 72 h, triplicate values printed singly, read-out: ATCC90113 MIC-0
[4] = 50% inhibition, 72 h, triplicate values printed singly, read-out: ATCC36556 MIC-2
[5] = no visible fungal growth, 72 h, triplicate values printed singly, read-out: ATCC36556 MIC-0
[6] = no visible fungal growth, 72 h, triplicate values printed singly

SMILES	MIC (C. neoformans ATCC 90113; [2]) [µg/mL]	MIC (C. neoformans ATCC 90113; [3]) [µg/mL]	ATCC36556 MIC-2 (C. neoformans ATCC 36556; [1]) [µg/mL]	MIC (C. neoformans ATCC 36556; [4]) [µg/mL]	MIC (C. neoformans ATCC 36556; [5]) [µg/mL]	ATCC90113 MIC-2 (C. neoformans ATCC 90113; [1]) [µg/mL]	C. neoformans growth inhibition (in words) (C. neoformans ATCC 36556)	ATCC36556 MIC-0 (C. neoformans ATCC 36556; [6]) [µg/mL]	MIC (C. neoformans ATCC 90113; read-out: ATCC90113 MIC-0) [µg/mL]	MIC (C. neoformans ATCC 90113; read-out: ATCC90113 MIC-2) [µg/mL]	MIC (C. neoformans ATCC 36556; read-out: ATCC36556 MIC-0) [µg/mL]	MIC (C. neoformans ATCC 36556; read-out: ATCC36556 MIC-2) [µg/mL]	ATCC90113 MIC-0 (C. neoformans ATCC 90113; [6]) [µg/mL]
COC(=O)[C@@H]1C[C@@H]2c3c([N+](=O)[O-])ccc4c3[C@H](C[C@H]2N(C)C1)CN4C(=O)OCC(Cl)(Cl)Cl [NGx19]	6.25	> 50	13	12.5	50	6.3	inhibit C. neoformans growth	25	–	–	–	–	–
COC(=O)[C@@H]1C[C@@H]2c3cc(O)cc4c3[C@H](C[C@H]2N(C)C1)CN4C(C)=O [NGx02]	> 50	> 50	–	> 50	> 50	–	–	–	–	–	–	–	–
CN1C[C@H](C(=O)Nc2cccc(C(F)(F)F)c2)C[C@@H]2c3cccc4c3[C@H](C[C@H]21)CN4C(=O)OC(C)(C)C [NGx03]	> 50	> 50	3.1	3.13	6.25	–	inhibit C. neoformans growth; also recorded: scored anti-fungal activity	6.3	–	–	–	–	–
C[C@@H]1[C@H](O)[C@@H](C)/C=C/C=C/C=C/C=C/C=C/C=C/C=C/[C@H](O[C@@H]2O[C@H](C)[C@@H](O)[C@H](N)[C@@H]2O)C[C@@H]2O[C@](O)(C[C@@H](O)C[C@@H](O)[C@H](O)CC[C@@H](O)C[C@@H](O)CC(=O)O[C@H]1C)C[C@H](O)[C@H]2C(=O)O [Amphotericin B, reference compound]	0.8	1.6	0.1	0.2	0.2	–	–	0.4	–	–	–	–	–
COC(=O)[C@@H]1C[C@@H]2c3cc(F)cc4c3[C@H](C[C@H]2N(C)C1)CN4C(C)=O [NGx06]	> 50	> 50	–	50	> 50	–	–	–	–	–	–	–	–
CN1C[C@H](C(=O)O)C[C@@H]2c3cccc4c3[C@H](C[C@H]21)CN4C(=O)OC(C)(C)C [NGx01]	–	–	–	–	–	–	–	–	> 50	> 50	> 50	> 50	–
COC(=O)[C@@H]1C[C@@H]2c3cccc4c3[C@H](C[C@H]2N(C)C1)CN4C(=O)OCC(Cl)(Cl)Cl [NGx16]	13	50	–	13	50	–	inhibit C. neoformans growth	> 50	–	–	–	–	> 50

Second part, led by results:

MIC (C. neoformans ATCC 90113; [2]) [µg/mL]	MIC (C. neoformans ATCC 90113; [3]) [µg/mL]	ATCC36556 MIC-2 (C. neoformans ATCC 36556; [1]) [µg/mL]	MIC (C. neoformans ATCC 36556; [4]) [µg/mL]	MIC (C. neoformans ATCC 36556; [5]) [µg/mL]	SMILES	ATCC90113 MIC-2 (C. neoformans ATCC 90113; [1]) [µg/mL]	C. neoformans growth inhibition (in words) (C. neoformans ATCC 36556)	ATCC36556 MIC-0 (C. neoformans ATCC 36556; [6]) [µg/mL]	MIC (C. neoformans ATCC 90113; read-out: ATCC90113 MIC-0) [µg/mL]	MIC (C. neoformans ATCC 90113; read-out: ATCC90113 MIC-2) [µg/mL]	MIC (C. neoformans ATCC 36556; read-out: ATCC36556 MIC-0) [µg/mL]	MIC (C. neoformans ATCC 36556; read-out: ATCC36556 MIC-2) [µg/mL]	ATCC90113 MIC-0 (C. neoformans ATCC 90113; [6]) [µg/mL]
> 50	> 50	–	> 50	> 50	CN1CC(C(=O)O)CC2c3cccc4c3C(CC21)CN4C(=O)OCc1ccccc1 (centres unmarked) [NGx18]	–	–	–	–	–	–	–	–
> 50	> 50	–	25	> 50	COC(=O)[C@@H]1C[C@@H]2c3cc(N)cc4c3[C@H](C[C@H]2N(C)C1)CN4C(C)=O [NGx10]	–	–	–	–	–	–	–	–
> 50	> 50	> 50	50	> 50	COC(=O)C1CC2c3cccc4c3C(CC2N(C)C1)CN4C=O (centres unmarked) [NGx17]	–	–	–	–	–	–	–	–
> 50	> 50	–	> 50	> 50	COC(=O)C1CC2c3cccc4c3C(CC2N(C(C)C)C1)CN4C(=O)OC(C)(C)C (centres unmarked) [NGx15]	–	–	–	–	–	–	–	–
13	> 50	–	6.3	> 50	CN1C[C@H](C(=O)Nc2ccccc2)C[C@@H]2c3c(O)ccc4c3[C@H](C[C@H]21)CN4C(=O)OC(C)(C)C [NGx07]	–	inhibit C. neoformans growth; also recorded: scored anti-fungal activity	–	–	–	–	–	–
> 50	> 50	–	25	> 50	COC(=O)[C@@H]1C[C@@H]2c3cc([N+](=O)[O-])cc4c3[C@H](C[C@H]2N(C)C1)CN4C(C)=O [NGx11]	–	–	–	–	–	–	–	–
–	> 50	–	–	> 50	COC(=O)[C@@H]1C[C@@H]2c3cc([N+](=O)[O-])cc4c3[C@H](C[C@H]2N(C)C1)CN4C(=O)OCC(Cl)(Cl)Cl [NGx09]	–	inhibit C. neoformans growth	–	–	–	–	–	–
> 50	> 50	–	50	> 50	COC(=O)[C@@H]1C[C@@H]2c3cc([N+](=O)[O-])cc4c3[C@@H](CN4)C[C@H]2N(C)C1 [NGx14]	–	–	–	–	–	–	–	–
> 50	> 50	25	50	> 50	COC(=O)[C@@H]1C[C@@H]2c3cc(OCc4ccccc4)cc4c3[C@H](C[C@H]2N(C)C1)CN4C(C)=O [NGx08]	–	–	–	–	–	–	–	–
> 50	> 50	50	25	> 50	COC(=O)C1CC2c3cc(O)cc4c3C(CC2N(C)C1)CN4C(C)=O (centres unmarked) [NGx12]	–	–	–	–	–	–	–	–
